{"source": "patent US20060223996A1", "about": "“IL-12 modulatory compounds” (Synta Pharmaceuticals Corp., priority 2004, published 2006)", "tested_on": "IL-12", "test": "Human in vitro assay: inhibition of IL-12 production in IFNγ/LPS- or IFNγ/SAC-stimulated human PBMC or THP-1 cells (ELISA)", "format": "cell-based", "conditions": "read-out: IC50 Range (representative in vitro IC50 data)", "from_the_text": "The biological activities of a heterocyclic compound can be evaluated by a number of cell-based assays. One of such assays can be conducted using cells from human peripheral blood mononuclear cells (PBMC) or human monocytic cell line (THP-1). The cells are stimulated with a combination of human interferon-γ (IFNγ) and lipopolysaccharide or a combination of IFNγ and Staphylococcus aureus Cowan I in the presence of a test compound. The level of inhibition of IL-12 production can be measured by determining the amount of p70 by using a sandwich ELISA assay with anti-human IL-12 antibodies. IC50 of the test compound can then be determined. Specifically, PBMC or THP-1 cells are incubated with the test compound. Cell viability was assessed using the bioreduction of MTS [3-(4,5-dimethylthiazol-2-yl)-5-(3-carboxymethoxyphenyl)-2-(4-sulfophenyl)-2H-tetrazolium](Promega, Madison, Wis.).\nHuman In Vitro Assay. Human PBMC were isolated by centrifugation using Ficoll-Paque (Pharmacia Biotech, Uppsala, Sweden) and prepared in RPMI medium supplemented with 10% fetal calf serum (FCS), 100 U/mL penicillin, and 100 μg/mL streptomycin. PBMC were plated in wells of a 96-well plate at a concentration of 5×10^5 cells/well, and primed by adding IFNγ (30 U/mL) for 22 h and stimulated by adding LPS (1 μg/mL), or by adding IFNγ (100 U/mL) and then stimulated by adding SAC (0.01%). A test pyrimidine compound was dissolved in DMSO, and added to wells of the 96-well plate. The final DMSO concentration was adjusted to 0.25% in all cultures, including the compound-free control. Human THP-1 cells were plated in wells, primed by adding IFNγ (100 U/mL) for 22 h and stimulated by adding SAC (0.025%) in the presence of different concentrations of the pyrimidine compound. Cell-free supernatants were taken 18 h later for measurement of cytokines. Cell viability was assessed using the bioreduction of MTS. Cell survival was estimated by determining the ratio of the absorbance in compound-treated groups versus compound-free control.\nThe supernatant was assayed for the amount of IL-12p40, IL-12p70, or IL-10 by using a sandwich ELISA with anti-human antibodies, i.e., a Human IL-12 p40 ELISA kit from R&D Systems (Berkeley, Calif.), and a Human IL-12 p70 or IL-10 ELISA kit from Endogen (Cambridge, Mass.). Assays were based on the manufacturer's instructions.\nThe biological activities of pyrimidine compounds were tested on human PBMC or THP-1 cells.", "data": [{"smiles": "Cc1c(C)n(O)c2ccc(NC(=O)c3cc(OCCN4CCOCC4)nc(N4CCOCC4)n3)cc12", "note": "[Compound 320, 2-Morpholin-4-yl-6-(2-morpholin-4-yl-ethoxy)-pyrimidine-4-carboxylic acid (1-hydroxy-2,3-dimethyl-1H-indol-5-yl)-amide]", "values": [{"measurement": "IC50", "value": "< 1000", "unit": "nM"}]}, {"smiles": "CC(=O)c1cccc(NC(=O)c2cc(OCCN3CCOCC3)nc(N3CCOCC3)n2)c1", "note": "[Compound 152, 2-Morpholin-4-yl-6-(2-morpholin-4-yl-ethoxy)-pyrimidine-4-carboxylic acid (3-acetyl-phenyl)-amide]", "values": [{"measurement": "IC50", "value": "≥ 1000", "unit": "nM"}]}, {"smiles": "CN(C)c1cccc(NC(=O)c2cc(N(C)CCO)nc(N3CCOCC3)n2)c1", "note": "[Compound 303, 6-[(2-Hydroxy-ethyl)-methyl-amino]-2-morpholin-4-yl-pyrimidine-4-carboxylic acid (3-dimethylamino-phenyl)-amide]", "values": [{"measurement": "IC50", "value": "< 1000", "unit": "nM"}]}, {"smiles": "Cc1c(C)n(C)c2ccc(NC(=O)c3cc(OCCN4CCOCC4)nc(N4CCOCC4)n3)cc12", "note": "[Compound 24, 2-Morpholin-4-yl-6-(2-morpholin-4-yl-ethoxy)-pyrimidine-4-carboxylic acid (1,2,3-trimethyl-1H-indol-5-yl)-amide]", "values": [{"measurement": "IC50", "value": "< 1000", "unit": "nM"}]}, {"smiles": "COCCN(C)c1cc(C(=O)Nc2nnc(C(C)(C)C)s2)nc(N2CCOCC2)n1", "note": "[Compound 236, 6-[(2-Methoxy-ethyl)-methyl-amino]-2-morpholin-4-yl-pyrimidine-4-carboxylic acid (5-tert-butyl-[1,3,4]thiadiazol-2-yl)-amide]", "values": [{"measurement": "IC50", "value": "≥ 1000", "unit": "nM"}]}, {"smiles": "O=C(Nc1cccc(-n2cccn2)c1)c1cc(OCCN2CCOCC2)nc(N2CCOCC2)n1", "note": "[Compound 313, 2-Morpholin-4-yl-6-(2-morpholin-4-yl-ethoxy)-pyrimidine-4-carboxylic acid (3-pyrazol-1-yl-phenyl)-amide]", "values": [{"measurement": "IC50", "value": "< 1000", "unit": "nM"}]}, {"smiles": "CCc1c(C)[nH]c2ccc(NC(=O)Nc3cc(C)nc(N4CCOCC4)n3)cc12", "note": "[Compound 267, 1-(3-ethyl-2-methyl-1H-indol-5-yl)-3-(6-methyl-2-morpholinopyrimidin-4-yl)urea]", "values": [{"measurement": "IC50", "value": "< 1000", "unit": "nM"}]}, {"smiles": "CN(C)C(=O)c1cccc(NC(=O)c2cc(OCCN3CCOCC3)nc(N3CCOCC3)n2)c1", "note": "[Compound 53, 2-Morpholin-4-yl-6-(2-morpholin-4-yl-ethoxy)-pyrimidine-4-carboxylic acid (3-dimethylcarbamoyl-phenyl)-amide]", "values": [{"measurement": "IC50", "value": "≥ 1000", "unit": "nM"}]}, {"smiles": "Cc1cc(NC(=O)Nc2ccc3[nH]c(C)c(C)c3c2)nc(N2CCOCC2)n1", "note": "[Compound 263, 1-(2,3-dimethyl-1H-indol-5-yl)-3-(6-methyl-2-morpholinopyrimidin-4-yl)urea]", "values": [{"measurement": "IC50", "value": "< 1000", "unit": "nM"}]}, {"smiles": "O=C(Nc1cccc([N+](=O)[O-])c1)Nc1cc(OCCN2CCOCC2)nc(N2CCOCC2)n1", "note": "[Compound 128, 1-[2-Morpholin-4-yl-6-(2-morpholin-4-yl-ethoxy)-pyrimidin-4-yl]-3-(3-nitro-phenyl)-urea]", "values": [{"measurement": "IC50", "value": "≥ 1000", "unit": "nM"}]}, {"smiles": "Cc1cccc(NC(=O)c2cc(OCCN3CCOC3=O)nc(N3CCOCC3)n2)c1", "note": "[Compound 44, 2-Morpholin-4-yl-6-[2-(2-oxo-oxazolidin-3-yl)-ethoxy]-pyrimidine-4-carboxylic acid m-tolylamide]", "values": [{"measurement": "IC50", "value": "≥ 1000", "unit": "nM"}]}, {"smiles": "Cc1cc(NC(=O)Nc2cc(OCCN3CCOCC3)nc(N3CCOCC3)n2)ccc1C(C)C", "note": "[Compound 329, 1-(4-Isopropyl-3-methyl-phenyl)-3-[2-morpholin-4-yl-6-(2-morpholin-4-yl-ethoxy)-pyrimidin-4-yl]-urea]", "values": [{"measurement": "IC50", "value": "< 1000", "unit": "nM"}]}, {"smiles": "COCCN(C)c1cc(C(=O)Nc2ccc3c(c2)OCO3)nc(N2CCOCC2)n1", "note": "[Compound 210, N-(benzo[d][1,3]dioxol-5-yl)-6-((2-methoxyethyl)(methyl)amino)-2-morpholinopyrimidine-4-carboxamide]", "values": [{"measurement": "IC50", "value": "≥ 1000", "unit": "nM"}]}, {"smiles": "CCN(CC)Cc1cc(NC(=O)c2cc(N(C)CCOC)nc(N3CCOCC3)n2)ccc1O", "note": "[Compound 164, 6-[(2-Methoxy-ethyl)-methyl-amino]-2-morpholin-4-yl-pyrimidine-4-carboxylic acid (3-diethylaminomethyl-4-hydroxy-phenyl)-amide]", "values": [{"measurement": "IC50", "value": "≥ 1000", "unit": "nM"}]}]}
